These results are taken from US8809360B2, “Use of a pyridine compound for the preparation of a medicament for the treatment of skin lesions” (Mitsubishi Tanabe Pharma Corporation, priority 2004, dated 2014).

Values joined by “and” are separate entries in the source; they are usually repeats but may differ in a detail not shown here. Equal entries are not always repeated.

In this assay the test system is Human Dermal Microvascular Endothelial Cell (HDMEC). The experiment in a line: Promoting activity in vitro on human dermal microvascular endothelial cell (HDMEC) proliferation. Conditions: positive control: bFGF solution 0.1 μg/mL medium. In kind it is cell-based. As to the method:
The wound healing-promoting activity of test compounds were investigated in terms of the promotion activity on HDMEC proliferation in the following manner. As a HDMEC, normal adult dermal microvascular endothelial cells (Hybridoma (1996): Vol. 15 (4), pp 279-288) were used in this study.
A suspension of HDMEC mentioned above (2×10^4 cells/mL; Cryo HMVEC-Ad; trademark registered by Cambrex Inc.) were seeded on 48-well plate (250 μL/well). The cells were cultured in a proliferation medium (BletKit EGM-2-MV; trademark registered by Cambrex Inc.) for one day. After substituting an assay medium (450 μL, bFGF-, EGF- and VEGF-free BletKit EGM-2-MV; trademark registered by Cambrex Inc.) for the proliferation medium, a dimethylsulfoxide solution of the test compound (0.1 v/v %, 50 μL) was added to each well and the cells were cultured for 96 hours. After culturing, the assay medium was removed by aspiration and the residual cells were suspended in Isoton II solution (500 μL; Beckmann-Coulter Ltd.) containing 0.05% trypsin and 0.02% ethylenediaminetetraacetic acid. The suspension was diluted (11-fold) with Isoton II solution (5 mL) and the number of cells were counted by Coulter-Counter Z1 (Beckmann-Coulter Ltd.).
As a negative control group, HDMEC was cultured in the same manner, but in the absence of the test compound, as described above. […]

For “Positive control: bFGF solution (0.1 μg/mL medium) used instead of the test compound solution; basic fibroblast growth factor”, the “Number of cells after 96 hours” value was 1.31 × 10^4 cells and 1.81 × 10^4 cells and 2.03 × 10^4 cells. Also, the “Number of cells after 96 hours” value (listed as positive control) is listed as 1.95 × 10^4 cells.
